From patent US20160136229A1, “MATERIALS FOR POSITIVE CATHEPSIN B MODULATION AND METHODS OF USE FOR TREATING MILD COGNITIVE IMPAIRMENT (MCI), EARLY DEMENTIA, A-SYNUCLEINOPATHY, TRAUMATIC BRAIN INJURY, CARDIOMYOPATHY, EYE DISEASE AND SKIN DAMAGE” (University of North Carolina at Pembroke, priority 2013, published 2016)

What was measured:
11-month Fischer rats = test: Exploratory habituation in novel field, Fischer rats; type: in vivo, rat; conditions: 27 mg/kg daily, vs vehicle-treated rats
Method: FIG. 2. The cathepsin B modulatory compound PADK improved learning and memory in 11-month Fischer rats, a model of mild cognitive impairment (MCI) and early dementia. A classic passive avoidance task to assess memory utilized a bi-sectioned apparatus consisting of a brightly-lit compartment and a dark compartment separated by a small door. […] In this figure, the female rats were injected daily with vehicle or 27 mg/kg PADK. Following each morning's injection, the rats were placed individually into the bright compartment and, after 10 s, the door was opened through which the rats typically entered immediately (3 min total time in apparatus/rat/day). Panel A: On the seventh injection day, latency time before entering the opened doorway was measured (pre-shock bars, mean±SEM), after which the door was closed to contain the animal in the dark compartment. A mild foot shock of 0.6 mA, 2 s duration, was then administered to the contained rat via the floor grid. Following the next day's injections, rats were again placed in the bright compartment and latency times measured after the door was opened (post-shock bars). […] Brains were removed after the behavior studies in order to assess cathepsin B levels.
The animal groups were also tested across two days in the same novel field, and the number of grid crossings per 3-min period was measured to determine exploratory habituation.

human α-synuclein = test: Human α-synuclein clearance in A53T transgenic mice; type: in vivo, mouse; conditions: i.p., 18 mg/kg/day, p=0.01 vs vehicle-treated A53T mice
Method: FIG. 4. Enhancing lysosome efficiency with the cathepsin B modulator PADK leads to reductions of multiple types of proteinopathy-related accumulation events. […] Age-matched wild-type mice (wt) and 9-10-month mutant human APP mice, a model of early dementia, treated with or without PADK were assessed for the 4-kDa Δβ peptide, the active form of cathepsin B (act CB), and other proteins in hippocampal samples (C). Similar treatment groups used another APP mouse model at 20-22 months of age to measure clearance of APP carboxyterminal fragments APP-αCTF and APP-βCTF (D). Rat hippocampal slice cultures from the untreated control group (con) and slices treated with submicromolar Δβ42 (early tauopathy model) in the absence or presence of PADK (5 μM for 4 days) were assessed for phosphorylated tau (pTau) and other proteins (E). For a model of early α-synucleinopathy, human A53T α-synuclein transgenic mice, at 7 months old, were studied with or without PADK treatment and assessed for human α-synuclein (α-syn) in TX-100 extracts of hippocampus and for other proteins in hippocampal homogenates (F). Plotted data (±SEM) were compared to neighboring vehicle groups by unpaired t-tests: *p=0.02, **p<0.01, ***p<0.001. APPswind and APP-PS1 mice are described in Butler et al., (2011), the entire content of which is hereby incorporated herein by reference.
FIG. 6. […]

[1] = system: GluR1, GluR4, synaptophysin, and synapsin II; test: Synaptic marker immunoblot in hippocampal homogenates of A53T mice; type: in vivo, mouse; conditions: A53T mice injected daily for 11 days
Method: FIG. 7. The cathepsin B modulator PADK promotes synaptic integrity in the model of early α-synucleinopathy. The A53T transgenic and wildtype (wt) mice were injected daily with PADK or vehicle for 11 days. […] Mean GluR1 immunoreactivities±SEM are shown (B); post hoc test compared to vehicle-treated transgenics: *p<0.05.
Lysosomal enhancement also promoted protein clearance and synaptic protection in the Parkinson's disease transgenic mouse model expressing mutant A53T human α-synuclein (FIG. 4E). As in the other proteinopathy models, the reduction in human α-synuclein corresponded with active CatB levels that were increased 3-6 fold in brains of the PADK-treated A53T mice. […] The A53T mice were used at 7-8 months of age and behavioral studies confirmed the early α-synucleinopathy was pre-symptomatic, although a subtle change in anxiety behavior was detected (FIG. 5). PADK-mediated cathepsin B modulation was evident throughout the CNS, and the enhanced levels of the enzyme's active form corresponded with improved clearance of α-synuclein (FIG. 6) and recovery of several synaptic markers (FIG. 7A).

cathepsin B = cathepsin B (Mus musculus, UniProt P10605); test: Cathepsin B / LAMP1 immunostaining of hippocampal tissue from PADK-treated mice; type: in vivo; set-up: from tissue; host or cells: mouse hippocampus (A1); conditions: i.p., 20 mg/kg/day×9 days
cathepsin B, sequence (P10605 80-333): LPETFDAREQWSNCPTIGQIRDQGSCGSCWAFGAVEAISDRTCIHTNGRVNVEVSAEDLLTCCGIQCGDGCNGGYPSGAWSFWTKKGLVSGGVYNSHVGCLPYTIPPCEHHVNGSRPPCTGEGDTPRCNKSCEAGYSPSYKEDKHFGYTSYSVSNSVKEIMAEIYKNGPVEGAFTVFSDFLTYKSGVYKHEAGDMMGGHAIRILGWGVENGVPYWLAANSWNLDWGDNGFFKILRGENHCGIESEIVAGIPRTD
Source text: FIG. 1. Lysosomal modulation increases the cathepsin B content of lysosomes and reduces intracellular Δβ1-42 in the APPswe/PS1ΔE9 transgenic mouse model of Alzheimer's disease. […] Without wishing to be bound by any scientific theory, the latter steps may involve processing/trafficking of active intermediate (intCB) and mature forms (matCB) from early/late endosomes to lysosomes in order to promote protein degradation (A). […] The increase in organellar cathepsin B enzyme (red) in PADK-treated APPswe/PS1ΔE9 transgenic mice (tg) was associated with a decrease in intracellular Δβ1-42 in the CA1 pyramidal neurons (C). Arrows denote co-localization in lysosomes, capturing intact Δβ1-42 before being degraded by cathepsin B. View-field widths: 12 μm. wt, vehicle-treated wild-type mice.
The lysosomal modulator Z-Phe-Ala-diazomethylketone (PADK) is administered to APPswe/PS1ΔE9 transgenic mice. Low-level PADK enhances cathepsin trafficking and maturation, thereby improving the clearance capacity of lysosomes (FIG. 1). It attenuates both PHF-tau and synaptic decline in the hippocampal slice model of protein accumulation (Bendiske and Bahr, 2003; Butler et al., 2005; Bahr, 2009). […] In PADK-treated transgenic mice, the increase in organellar cathepsin B was associated with a decrease in intracellular Aβ1-42 in pyramidal neurons (FIG. 1C).

Question: With C[C@H](NC(=O)[C@H](Cc1ccccc1)NC(=O)OCc1ccccc1)C(=O)C=[N+]=[N-] [PADK, N-carbobenzyloxy-L-phenylalanyl-L-alanyl-diazomethylketone] as the compound, how does the “grid crossings per 3-min period, day 1” value (11-month Fischer rats) read?
Answer: The value was “No significant difference”.

Question: What about the “exploratory habituation, second day” value (11-month Fischer rats; P<0.05) of the same compound?
Answer: Its value is “improved habituation”.

Question: What about the “human α-synuclein levels” value (human α-synuclein) of the same compound?
Answer: Its value is “decrease”.

Question: And the “levels of synaptic markers GluR1, GluR4, synaptophysin, and synapsin II” value [1]?
Answer: The value was “improved levels”.

Question: What about the “levels of cathepsin B in hippocampal neurons, co-localized with LAMP1-positive lysosomes” value (cathepsin B) of the same compound?
Answer: The value was “enhanced levels of cathepsin B”.
